The data set can be described thus: gradient 5% acetonitrile 3 min, to 50% in 2 min, to 85% in 15 min, held 3 min, 100 µL/min. Particulars: column: Zorbax Extend-C18 2.1 x 50 mm; eluents: water / acetonitrile, 0.1% formic acid. The method, boiled down: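 The system's dead and dwell volumes were 40 μL and 900 μL, with a Zorbax Extend-C18 column (2.1 × 50 mm, 1.8 μm) run at 100 μL/min in water and acetonitrile containing 0.1% formic acid each. Pure standards were analyzed in mixtures of ~100 molecules by HPLC–quadrupole time-of-flight mass spectrometry in positive and negative ionization mode. Retention time was assigned from computationally picked, manually inspected adduct peaks.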
Take `COc1cc(Cl)c(NC(=O)C2CCCN(C(=O)c3cc(-c4ccncc4)n[nH]3)C2)c(OC)c1` (stereo not given): the RP-LC retention time amounted to 642 s. Under `COc1cccc2cc(C(=O)Nc3ccc(-c4ccc(N5CCCC5)nn4)cc3)oc12` stands 607 s; under `Cc1ccc(C(=O)Nc2ccc3c(c2)CCC(=O)N3C)s1`, 712 s; under `Cc1nc(Nc2ccc(F)cn2)sc1C(=O)N1CCN(C2CCCCC2)CC1`, 639 s.

For the compound `COc1cc(-c2nc3ncccn3c2NCc2ccc(C)cc2)cc(OC)c1OC`, the RP-LC retention time was determined as 746 s. Take `O=S(=O)(c1ccccc1)N1CCc2nc(-c3ccc(F)cc3)ncc2C1`: the RP-LC retention time is 1040 s. The value for `Cc1cc(=O)n(CC(=O)NCc2ccc(F)c(Cl)c2)c(N2CCCCC2)n1` was 716 s; that for `O=C(NCCc1ccccc1)N1CCN(c2cnn3cnnc3c2)CC1` was 615 s. For `Cc1ccc(S(=O)(=O)NC(=O)NN2CCCCCC2)cc1`, the RP-LC retention time turned out to be 914 s. `Cc1ccc(-c2noc(C3CCCN3C(=O)CNS(=O)(=O)c3ccc(Cl)cc3)n2)cc1` (stereo not given) had an RP-LC retention time of 1030 s. `Cc1ccc(CNC(=O)c2ccc(Cn3c(C(F)(F)F)nc4cccnc43)cc2)cc1`: the RP-LC retention time came out at 943 s. In the case of `CC1=C(c2ccccc2)S(=O)(=O)N=C1N1CCCN(C(=O)c2ccc(F)cc2F)CC1`, the RP-LC retention time came to 835 s. Under `O=C(CSC1CCCC1)NCCCC(=O)Nc1cccc2cccnc12` stands 781 s; under `COc1ccc(CN2CCC([C@@H]3CNC[C@H]3CO)CC2)c(OC)c1`, 549 s.

Take `CCCNC(=O)C1CCN(c2ccc(SCC(=O)Nc3cccc(C(=O)OCC)c3)nn2)CC1`: the RP-LC retention time was 675 s. The compound `CN1CC(=O)N(CC(=O)N2CCN(c3cccc(Cl)c3)CC2)c2ccccc2C1=O` yielded an RP-LC retention time of 747 s.

As to `COc1ccc(-c2ccc(=O)n(CCCNC(=O)c3ccc(C(F)(F)F)cc3)n2)cc1`, the RP-LC retention time came out at 824 s. `COC(=O)c1cccc(C(=O)Nc2ccc(Cl)cc2F)n1` showed an RP-LC retention time of 996 s. On to `CCn1c(CCNC(=O)c2cccc(N(C)C)c2)nc2cccnc21`, for which the RP-LC retention time was 586 s. For `COCCN1CC(CO)C2(CCN(Cc3ccc(Cl)cc3F)CC2)C1` (stereo not given), the RP-LC retention time was 538 s.

In turn, `CCn1nccc1C(=O)N1CCCN(C2=NS(=O)(=O)C(c3ccc(F)cc3)=C2C)CC1` had an RP-LC retention time of 737 s. The compound `Cc1ccc(NC(=O)Nc2cnn(-c3ncncc3N3CCOCC3)c2)cc1Cl` registered an RP-LC retention time of 695 s.

Regarding `Cc1cccc(Cn2nc3n(CCC(=O)NC(C)C)c(=O)c4ccccc4n3c2=O)c1`, the RP-LC retention time amounted to 851 s. The compound `Cn1cc(-c2nc(-c3cccc(Cl)c3)no2)c(=O)c2cc(F)c(N3CCCC3)cc21` yielded an RP-LC retention time of 627 s. The value for `COc1ccc(CNC(=O)C2CCN(c3nccnc3Sc3ccccc3)CC2)c(OC)c1` was 983 s. Under `O=C(NCCc1csc(-c2cccs2)n1)C1CCN(S(=O)(=O)c2cccc(Cl)c2)CC1` stands 975 s. Turning to `O=S(=O)(c1cccc(-c2nc(-c3ccccc3)no2)c1)N1CCCC1`, the RP-LC retention time amounted to 1130 s.

For the compound `Clc1ccc(CSc2cc(Cl)ncn2)cc1`, the RP-LC retention time was 1170 s. As to `COCC(=O)NC1CCC12CCN(C(=O)CC(C)C)CC2` (stereo not given), the RP-LC retention time is 675 s. The value for `CCCCN(C)C(=O)C1CCN(c2cncnc2N(C)C)CC1` was 611 s. The value for `COCCN1C(=O)CCc2cc(NS(=O)(=O)c3cc(OC)ccc3OC)ccc21` was 724 s; that for `CCN1C(=O)c2c(C(=O)Nc3ccc(C)cc3)ncn2CC1(C)C(=O)NC1CCCC1` (stereo not given) was 822 s. Under `CCC(C)OC(=O)C1=C(C)NC(=O)NC1c1ccccc1F` (stereo not given) stands 800 s; under `O=C(Nc1cccc(F)c1)C1CC(=O)N(CCc2c[nH]c3ccc(F)cc23)C1` (stereo not given), 799 s. The compound `CCc1nc2cc(-c3noc(CCc4ccc(OC)cc4)n3)ccc2o1` yielded an RP-LC retention time of 1130 s. The value for `CNc1nc(N2CCCCCC2)nc(-n2cnc(SC)n2)n1` was 685 s; that for `Cc1noc(C)c1CCNC(=O)CCCN1C(=O)CCn2nc(-c3cn(C)c4ccccc34)cc21` was 732 s; that for `CC(C)(C)c1noc(-c2ccc(-n3cnc(C(=O)N4CCCCC4)c3)nc2)n1` was 742 s. In turn, `Cc1ccc(CNC(=O)CN2CCc3ccccc3C2C(=O)N2CCC(C)CC2)cc1C` (stereo not given) showed an RP-LC retention time of 1030 s. With `NC(=O)C1CCN(C(=O)c2ccc(CN3C(=O)CCn4nc(-c5cccc(Cl)c5)cc43)cc2)CC1`, the RP-LC retention time was found to be 700 s.

`Cc1cc(C)c(S(=O)(=O)N2CC(=O)N(CC3CC3)C3(CCOCC3)C2)c(C)c1` returned an RP-LC retention time of 944 s.

Regarding `O=C(NCC(c1ccsc1)N1CCCC1)Nc1ccc(Cl)cc1` (stereo not given), the RP-LC retention time was 578 s. `Cc1ccc2[nH]cc(CCN3CC(C(=O)Nc4cccc(Br)c4)CC3=O)c2c1` (stereo not given): the RP-LC retention time worked out at 911 s.

In turn, `O=c1ccc(-c2ccc(S(=O)(=O)N3CCN(c4ccccn4)CC3)s2)n[nH]1` gave an RP-LC retention time of 595 s.

Turning to `Cc1ccc(Nc2c(-c3ccc(O)cc3)nc3ccc(Br)cn23)cc1`, the RP-LC retention time was found to be 726 s. Take `O=C(Nc1ccc2c(c1)OCCO2)N1CCC2(CC1)Nc1ccccc1-n1cccc12`: the RP-LC retention time is 934 s.

Compound `CC1(C(=O)NC2CCCC2)CN(S(=O)(=O)c2ccccc2)CC(=O)N1c1ccc(F)cc1` (stereo not given) returned an RP-LC retention time of 892 s. The compound `O=C1C(N2CCN(S(=O)(=O)c3ccc(F)cc3F)CC2)CCN1Cc1cccnc1` (stereo not given) displayed an RP-LC retention time of 542 s. The value for `COc1ccc(C)cc1NC(=O)N1CCN(c2cnn3c(C)nnc3c2)CC1` was 648 s; that for `COc1ccc(C)cc1NC(=O)Cn1nc(N2CCCC(C)C2)c2ccccc2c1=O` (stereo not given) was 1260 s. The value for `O=C(NCc1ccncc1)c1cc2cc(Cl)ccc2[nH]1` was 618 s. Under `FC(F)(F)c1ccc(CN2CCN(c3cnn4cnnc4c3)CC2)cc1` stands 594 s. With `Cc1nc2cc3c(cc2n1CC(=O)NC1CCCc2ccccc21)OCCO3` (stereo not given), the RP-LC retention time is 682 s. The value for `CCC(=O)N1CCOc2ccc(N3CCOCC3)cc2C1` was 630 s. On to `O=S(=O)(c1cccc2cccnc12)N1CC[C@@H]2COCCN(Cc3ccccc3)[C@@H]2C1`, for which the RP-LC retention time amounted to 664 s. Regarding `CCCNC(=O)C1CCN(c2ccc(SCC(=O)Nc3ccccc3Br)nn2)CC1`, the RP-LC retention time is 670 s. Under `O=C(NCC1CCN(c2cc(-c3ccncc3)[nH]n2)CC1)c1ccc2c(c1)OCO2` stands 598 s. Turning to `Cc1ccc(=O)n(CC(=O)NCc2cccs2)n1`, the RP-LC retention time was 591 s. The value for `Cc1ccccc1Cn1cc(-c2ccncc2)cc1C(=O)NCC1CCCO1` (stereo not given) was 667 s; that for `Cc1c(C(=O)O)nnn1-c1ccc2c(c1)CCC2` was 759 s; that for `Cc1ccc(-c2noc(Cn3ccn(-c4ccc(Cl)cc4)c(=O)c3=O)n2)cc1` was 918 s. Under `Fc1cccc(F)c1C1SCc2nc3ccccc3n21` (stereo not given) stands 797 s; under `N#Cc1cccc(N2C=C(C(=O)N3CCCC3)S(=O)(=O)c3ccc(F)cc32)c1`, 752 s; under `Cn1c(=O)c2cc(C(=O)NCCCc3ccccc3)sc2n(C)c1=O`, 765 s. `Cc1ccsc1CN1CCC(n2c(C)cnc2-c2ccncc2)C1` (stereo not given): the RP-LC retention time turned out to be 506 s. Under `C[C@@H]1CN(C(=O)c2ccsc2)C[C@H]1c1nc(-c2ccccc2)no1` stands 935 s; under `COc1cccc2c(C)nc(NC3=NCN(CC4CCCO4)CN3)nc12` (stereo not given), 627 s; under `Cc1noc(-c2cccnc2SCC(=O)Nc2cccc(Br)c2)n1`, 895 s. Under `CC(=O)N1CCC(C(=O)Nc2nnc(C3CC3)s2)CC1` stands 605 s. In the case of `COc1cccc(NC(=O)Cn2nc3c(Oc4ccc(F)cc4)nccn3c2=O)c1`, the RP-LC retention time came to 812 s. Compound `Cc1ccc(C)c(CNC(=O)c2ccc3ncnc(N4CCCC4)c3c2)c1` showed an RP-LC retention time of 678 s.

Take `COc1cc(OC)cc(C(=O)N2CCC3(CC2)N=C(c2ccccc2)NO3)c1`: the RP-LC retention time was found to be 810 s. Regarding `COc1ccccc1-c1noc(Cn2c(=O)n(-c3ccccc3C)c(=O)c3sccc32)n1`, the RP-LC retention time turned out to be 910 s. `COc1cccc(CN2CC(=O)N(Cc3cccc(F)c3)c3ccccc3S2(=O)=O)c1`: the RP-LC retention time is 1070 s. For `CCN1c2cc(F)ccc2C(=O)NC12CCN(C(=O)c1ccccc1)CC2`, the RP-LC retention time worked out at 742 s. The value for `COCCCNC(=O)c1cc(-c2ccc(OC)cc2)nc2n[nH]c(-c3ccccc3)c12` was 789 s. Under `Cc1ccc2nc(NC(=O)C3CCN(C(=O)C4Sc5ccccc5NC4=O)CC3)sc2c1` (stereo not given) stands 838 s; under `O=C(Nc1nnc(-c2cc3ccccc3o2)o1)c1ccc(Cl)s1`, 902 s. The value for `CC1(C)CC(=O)CC(C)(C)N1O` was 666 s; that for `c1cncc(-c2nc(-c3ccc(OC4CNC4)cc3)no2)c1` was 605 s.

For the origin of these results see the METLIN SMRT retention time set (Domingo-Almenara et al. 2019).
